Patent publication US20180002400A1, “SHORT PEPTIDE-BASED THERAPEUTIC AGENT AND MEDICINAL COMPOSITION INCLUDING THE SAME FOR INHIBITING ACTIVITIES OF CANCER CELLS” (NATIONAL CHENG KUNG UNIVERSITY, priority 2015, published 2018)

Experiments:
[1] = test system: breast cancer MB231 cell; assay: Drug resistance (CDDP, 5-FU) induced by euPTX3, MTT assay; type: cell-based, human; conditions: MB231; short peptide 10 μg/mL or 225 nM + euPTX3 2.5 μg/mL 1 week, then 40 μM CDDP or 100 μM 5-FU 48 hours; FIG. 1D
Method: The cell density 1×10^4 cells/well of the breast cancer MB231 cell, the lung cancer A549 cell and the nasopharyngeal cancer HONE1 cell were co-cultured with the short peptides RI37, GI40 and KT44 (10 μg/mL or 225 nM of the short peptide) and the polypeptide euPTX3 (2.5 μg/mL) of Example 1. After 1 week of cultivation, those cancer cells were added with 40 μM of CDDP or 100 μM of 5-FU respectively and cultured for 48 hours. Based on the cell viability of the cells only co-cultured with the polypeptide euPTX3 (2.5 μg/mL) as 100%, the influence of drug resistance of the cancer cells of Example 2 using the short peptides of Example 1 could be determined according to the aforementioned MTT assay.

[2] = test system: drug-resistant breast cancer MB231R (MBR) cells; assay: Cancer cell invasion (matrigel-coated insert) induced by euPTX3; type: cell-based, human
[3] = test system: drug-resistant 4T1R breast cancer; assay: Allograft tumor model, CDDP-resistant 4T1R cells in BALB/c mice; type: in vivo, mouse; conditions: 4T1R in BALB/c mice; for drug resistance generated by the tumor: 50 μg short peptide intratumorally twice weekly combined with CDDP 5 mg/kg i.p. once weekly; for drug resistance generated by the tumor / tumor growth (tumor size): FIG. 4A; for tumor growth (tumor size): 50 μg short peptide intratumorally twice weekly; for tumor metastasis and growth (images of tumors of various organs, epi-fluorescence radiance efficiency): IVIS imaging; for tumor metastasis (number of metastatic nodules per lung) / tumor growth (tumor weight per lung): sacrificed after six weeks; for tumor metastasis (number of metastatic nodules per lung): FIG. 4B left panel; for tumor growth (tumor weight per lung): FIG. 4B right panel
Method: In this Example, 1×10^6 mCherry fluorescent protein-labeled CDDP-resistant mouse 4T1 cells (4T1R; ATCC CRL-2539) were inoculated subcutaneously to the rear side of the back of six to eight-week-old female BALB/c mice (purchased from Laboratory Animal Center of National Cheng Kung University). After 1 week of inoculation, the mice were intraperitoneally injected with 5 mg/kg of CDDP [dissolved in 1% (w/v) DMSO] or only 1% (w/v) of DMSO once weekly, and intratumorally uninjected or injected with 50 μg of the short peptides RI37, GI40 and KT44 of Example 1 twice weekly. The mice were sacrificed after six weeks of inoculation. Spleen, kidneys, lungs and liver were obtained, tumor weight of those organs were measured according to 6 replications per group, and the metastatic activity and the number of metastatic nodules per organ were confirmed by IVIS Spectrum Imaging System 200 (Caliper). The tumor size was measured by a commercial external caliper, and the tumor volume (V) was calculated by the following formula (I): […]
In the formula (I), w was referred to tumor width, l was referred to tumor length. Each condition of the experiment was repeated at least thrice.

[4] = test system: drug-resistant MB231R breast cancer; assay: Xenograft tumor model, CDDP-resistant MB231R cells in NOD-SCID mice; type: in vivo, mouse; conditions: for drug resistance generated by the tumor: 50 μg short peptide intratumorally twice weekly combined with CDDP 5 mg/kg i.p. once weekly; for drug resistance generated by the tumor / tumor growth (tumor size): FIG. 4D; for tumor growth (tumor size): 50 μg short peptide intratumorally twice weekly; for tumor metastasis and growth (images of tumors of various organs, epi-fluorescence radiance efficiency): IVIS imaging; for tumor metastasis (number of metastatic nodules per lung) / tumor growth (tumor weight per lung): sacrificed after ten weeks; for tumor metastasis (number of metastatic nodules per lung): FIG. 4E left panel; for tumor growth (tumor weight per lung): FIG. 4E right panel
Method: Besides, 1×10^6 mCherry fluorescent protein-labeled CDDP-resistant human MDA-MB-231 cells (MB231R; ATCC CRL-2539) were inoculated subcutaneously to the rear side of the back of six to eight-week-old female NOD-SCID immunodeficiency mice (purchased from Laboratory Animal Center of National Cheng Kung University). After 1 week of inoculation, the mice were intraperitoneally injected with 5 mg/kg of CDDP [dissolved in 1% (w/v) DMSO] or only 1% (w/v) of DMSO once weekly, and intratumorally uninjected or injected with 50 μg of the short peptides RI37, GI40 and KT44 of Example 1 twice weekly. The mice were sacrificed after ten weeks of inoculation. Spleen, kidneys, lungs and liver were obtained, tumor weight of those organs were measured according to 3 replications per group, and the metastatic activity and the number of metastatic nodules per organ were confirmed by IVIS Spectrum Imaging System. The tumor size was measured by a commercial external caliper, and the tumor volume (V) was calculated by the following formula (I). Each condition of the experiment was repeated at least thrice.

[5] = MB231R (MBR), identical molecular number: euPTX3 2.5 μg/mL, RI37 3.7 μg/mL, GI40 4 μg/mL, pPTX3/C 10 μg/mL, FIG. 5B right panel
[6] = breast cancer cells, short peptide 10 μg/mL + euPTX3 2.5 μg/mL, FIG. 1E right panel

Substance | drug resistance induced by the polypeptide euPTX3 (cell viability) [1] | invasive cell numbers induced by the polypeptide euPTX3 [2, 5] | invasive cell numbers induced by the polypeptide euPTX3 [2, 6] | drug resistance generated by the tumor [3] | tumor growth (tumor size) [3] | tumor metastasis and growth (images of tumors of various organs, epi-fluorescence radiance efficiency) ([3]; FIG. 4C) | tumor metastasis (number of metastatic nodules per lung) [3] | tumor growth (tumor weight per lung) [3] | drug resistance generated by the tumor [4] | tumor growth (tumor size) [4] | tumor metastasis and growth (images of tumors of various organs, epi-fluorescence radiance efficiency) ([4]; FIG. 4F) | tumor metastasis (number of metastatic nodules per lung) [4] | tumor growth (tumor weight per lung) [4] | metastatic nodules in organs (imaging) ([3]; FIG. 4C) | metastatic nodules in organs (imaging) ([4]; FIG. 4F)
GI40: artificially synthetic short peptide having the amino acid sequence listed as SEQ ID NO:2, designed from human PTX3 (NP_002843.2) (GGGFDETLAFSGRLTGFNIWDSVLSNEEIRETGGAESCHI; The 320th amino acid to 359th amino acid of Human sapiens PTX3 (GI40)) | could effectively inhibit the drug resistance | could effectively inhibit the invasive cell numbers | could effectively inhibit the invasive cell numbers | reduce the drug resistance | could inhibit tumor growth | could inhibit tumor metastasis and growth | could inhibit tumor metastasis | could inhibit tumor metastasis and growth | reduce the drug resistance | could inhibit tumor growth | could inhibit tumor metastasis and growth | could inhibit tumor metastasis | could inhibit tumor metastasis and growth |  | 
RI37: artificially synthetic short peptide having the amino acid sequence listed as SEQ ID NO:1, designed from human PTX3 (NP_002843.2) (RPMRLESFSACIWVKATDVLNKTILFSYGTKRNPYEI; The 200th amino acid to 236th amino acid of Human sapiens PTX3 (RI37)) | could effectively inhibit the drug resistance | could effectively inhibit the invasive cell numbers | could effectively inhibit the invasive cell numbers | reduce the drug resistance | could inhibit tumor growth | could inhibit tumor metastasis and growth | could inhibit tumor metastasis | could inhibit tumor metastasis and growth | reduce the drug resistance | could inhibit tumor growth | could inhibit tumor metastasis and growth | could inhibit tumor metastasis | could inhibit tumor metastasis and growth |  | 
KT44: artificially synthetic peptide having the amino acid sequence listed as SEQ ID NO:3 (KLVAEAMVSLGRWTHLCGTWNSEEGLTSLWVNGELAATTVEMAT; The 255th amino acid to 298th amino acid of Human sapiens PTX3 (KT44)) | could not significantly inhibit the drug resistance |  | could not inhibit the invasive cell numbers |  | could not significantly inhibit the tumor growth | could not significantly inhibit tumor metastasis and growth | could not significantly inhibit tumor metastasis | could not significantly inhibit tumor metastasis and growth |  | could not significantly inhibit the tumor growth | could not significantly inhibit tumor metastasis and growth | could not significantly inhibit tumor metastasis | could not significantly inhibit tumor metastasis and growth | metastatic nodules was found in lungs | metastatic nodules was found in lungs
